Test results reported in US20050042244A1, “Method of controlling acarian and device for use in the same” (KURARAY CO LTD, priority 2002, published 2005).

Key:
[1] = tested on: Dermatophagoides pteronyssinus; assay: Repellence test method (invasion preventive method); assay type: in vivo; conditions: 1.0 g/m^2; for number of Acarina, 1 day later: untreated control 65; for number of Acarina, 2 days later: untreated control 132; for number of Acarina, 3 days later: untreated control 140
Procedure: The repellence rates of the isomer of farnesylacetone and phytone under 1.0 g/m^2 conditions for a kind of Dermatophagoides pteronyssinus were determined by the repellence test method (invasion preventive method: “Processing Technique” vol. 33, No. 2, pp. 153-155 (1998) “titled: Acarina repellent-processed product repellence test basic manual” (Apareru Seihin-tou Hinshitsu Seinou Taisaku Kyougikai). The results are shown in Table 1 below. […]

[2] = tested on: Dermatophagoides pteronyssinus; assay: Acarina repellence test by improved glass tube method; assay type: in vivo; conditions: filter paper that absorbed farnesylacetone (0.1 g); 37±1° C., 75±5% Rh, 48 hr; gas concentration 5 μg/L
Text: The “glass tube method” known as one of the repellence tests for Acarina repellent-processed fibers was modified and used for a repellence test.
In the L-shaped glass tube in the test section was fixed filter paper with a two-sided tape inside the glass tube at part D, a test sample (filter paper that absorbed farnesylacetone (0.1 g)) was placed, and the glass tube opening on the D side was sealed with an airtight PARAFILM. Then, a medium containing 10,000 live Acarina (Dermatophagoides pteronyssinus) were placed in part A of the L-shaped glass Lube, and the glass end on the A side was sealed with a high density fabric capable of preventing passage of Acarina while maintaining air permeability. This test apparatus was stood still in a container maintained at 37±1° C., 75±5% Rh for 48 hr. […] The farnesylacetone concentration of the gas in part D was measured by gas chromatography. […]
Subsequently, the feed for attraction in part C was taken out, and the number of Acarina that invaded into the feed for attraction was counted by the following method. […] The number of Acarina floating in the upper layer was counted. […] The repellence rate of the test sample was determined by the following formula and found to be 98%. […]

[3] = tested on: Dermatophagoides farinae; assay: Acarina repellence test by improved invasion prevention method (coated lid, vapor); assay type: in vivo; conditions: 25° C., 1 day
Procedure: The invasion prevention method was modified and a repellence test was performed.
As a lid to cover this box (4, 4′), two glass plates (length 5.5 cm, width 6 cm, thickness 1.3 mm) were prepared.
An ethanol solution of farnesylacetone (1%, 100 mg) was coated on the surface of one (test section side) of the two lids to cover the test box, and ethanol was air dried for 10 min. Then, a sample for Acarina attraction (50 mg) each was placed on both ends of the test box in the longitudinal direction, and the above-mentioned farnesylacetone-coated lid (4′) alone was placed, such that the surface coated with farnesylacetone faced the inside of the box. The box was placed in an incubator at 37° C. for 60 min until the farnesylacetone vapor filled the test section side of the test box. […] Thereafter, the test container was taken out, the number of Acarina that invaded into the feeds in the test section side and the control section side (50 and 1100, respectively, the rest of the Acarina fled) was counted. The repellence rate was determined by the following formula and found to be 95%. The concentration of farnesylacetone filled in the air at 37° C. was measured in the same manner as in Reference Example 1 and assumed to be 5 μg/L. Repellence rate (%)=(1− number of Acarina that invaded the test section/number of Acarina that invaded the control section)×100 […]

[4] = tested on: Acarina; assay: Repellence test with supplied gas containing 0.001 μg/L farnesylacetone in modified glass plate test apparatus; assay type: in vivo; conditions: gas containing 0.001 μg/L farnesylacetone at 1 mL/min; 37±1° C., 75±5% Rh; 4 hr
Procedure: A 2L flask containing the gas containing 0.001 μg/L farnesylacetone prepared in the same manner as in Reference Example 1 was equipped with a Teflon® tube (inner diameter 2 mm) for discharging the gas containing farnesylacetone and a Teflon® tube for charging water into the container using a metering pump, whereby an apparatus to send out (supply) the gas containing farnesylacetone at 1 mL/min by introducing water into the flask at 1 mL/min was manufactured. […]
Then the test apparatus was placed in a room with constant temperature and humidity at 37±1° C., 75±5% Rh, and the apparatus was operated for 3 hr for filling the test section with the above-mentioned concentration of farnesylacetone, after which an Acarina medium containing 10000 live Acarina were inserted from the gap of the lid and left standing for 4 hr. Then, the number of Acarina that invaded into the feed for attraction in each part C of the test section side and the control section side was counted. […] The number of Acarina floating in the upper layer was counted. The repellence rate was determined by the following formula and found to be 80%. […]

[5] = Measurement of farnesylacetone concentration in the air (gas chromatography, FID, absolute calibration); assay type: physicochemical; conditions: for farnesylacetone concentration in gas of sample bottle: 1 hr
Procedure: measurement of farnesylacetone concentration in the air
Farnesylacetone (1 mL) was placed in a 50 mL sample bottle, and a large magnetic stirring bar capable of rotating the air as well was placed therein. The bottle was placed neck-deep in an oil bath at 130° C. with rotation, and heated for 1 hr to saturate the inside of the sample bottle with farnesylacetone vapor. Thereafter, the gas in the sample bottle was taken by 5 mL with a gas tight syringe, and using gas chromatography with an FID detector, the concentration of farnesylacetone was measured by the absolute calibration method.
Farnesylacetone (1 mL) was placed in a 50 mL sample bottle, and a large magnetic stirring bar capable of rotating the air as well was placed therein. The bottle was placed neck-deep in a water bath at 60° C. with rotation, and heated for 1 hr to fill the inside of the sample bottle with farnesylacetone vapor. Thereafter, the gas in the sample bottle was taken by 5 mL with a gas tight syringe, and using gas chromatography with an FID detector, the concentration of farnesylacetone was measured by an absolute calibration method. […] Almost simultaneously, the gas (5 mL) in the sample bottle was taken again, a propeller was set in a 10 L beaker, the gas was added into the sealed beaker, the air in the beaker was stirred with the propeller for 10 min to dilute the gas 2,000-fold, whereby gas containing 0.01 μg/L farnesylacetone was obtained. The diluted gas (200 mL) was sampled with a syringe, a propeller was set in a 2 L flask, the gas was added into the sealed flask, the air in the beaker was stirred with the propeller for 10 min to further dilute the gas 10-fold, whereby gas containing 0.001 μg/L farnesylacetone was obtained.

[6] = tested on: human; assay: Odor and effect on human of sampled gas containing farnesylacetone; conditions: gas containing 20,000 μg/L farnesylacetone
Procedure: Farnesylacetone (1 mL) was placed in a 50 mL sample bottle, and a large magnetic stirring bar capable of rotating the air as well was placed therein. The bottle was placed neck-deep in a water bath at 60° C. with rotation, and heated for 1 hr to fill the inside of the sample bottle with farnesylacetone vapor. Thereafter, the gas in the sample bottle was taken by 5 mL with a gas tight syringe, and using gas chromatography with an FID detector, the concentration of farnesylacetone was measured by an absolute calibration method. […] Almost simultaneously, the gas (5 mL) in the sample bottle was taken again, a propeller was set in a 10 L beaker, the gas was added into the sealed beaker, the air in the beaker was stirred with the propeller for 10 min to dilute the gas 2,000-fold, whereby gas containing 0.01 μg/L farnesylacetone was obtained. […]

With `CC(=O)CCC=C(C)CCC=C(C)CCC=C(C)C` [trans-trans farnesylacetone, farnesylacetone] as the compound, how does the “repellence rate, 1 day later” value [1] read?
The value was 87.7%.

And the “repellence rate, 2 days later” value [1]?
Its value is 90.2%.

And the “repellence rate, 3 days later” value [1]?
Its value is 82.9%.

And the “number of Acarina, 1 day later” value [1]?
The value was 8 Acarina.

What about the “number of Acarina, 2 days later” value [1] of the same compound?
Its value is 13 Acarina.

What about the “number of Acarina, 3 days later” value [1] of the same compound?
Its value is 24 Acarina.

Which Repellence rate [2] does the source give for `CC(=O)CC/C=C(\C)CC/C=C(\C)CCC=C(C)C` [farnesylacetone] here?
Its Repellence rate is 98%.

And the “number of Acarina that invaded into the feed in the test section side” value ([3]; 50,000 released, control section side 1100)?
Its value is 50.

And the Repellence rate ([3]; lid coated with 1% ethanol solution (100 mg), vapor only, 5 μg/L)?
Its Repellence rate is 95%.

What about the Repellence rate [4] of the same compound?
The Repellence rate was 80%.

And the “farnesylacetone concentration in gas of sample bottle” value ([5]; 60° C. water bath)?
Its value is 20 µg/L.

What about the “farnesylacetone concentration in gas of sample bottle” value ([5]; 130° C. oil bath, saturated vapor) of the same compound?
Its value is 20,000 μg/L.

What about the “farnesylacetone concentration of the gas in part D” value ([5]; L-shaped glass tube of Example 1, after 48 hr at 37±1° C.) of the same compound?
The value was ~5 µg/L.

And the “concentration of farnesylacetone filled in the air” value ([5]; at 37° C., test box of Example 2)?
The value was ~5 ng/mL.

What about the “odor and effect of sampled gas on human” value [6] of the same compound?
Its value is “had a strong odor, caused cough when inhaled in a large amount, and provoked uncomfortable feeling in human”.

With `CC(=O)CCCC(C)CCCC(C)CCCC(C)C` (stereo not drawn) [phytone] as the compound, how does the “repellence rate, 1 day later” value [1] read?
The value was 89.2%.

And the “repellence rate, 2 days later” value [1]?
Its value is 90.9%.

What about the “repellence rate, 3 days later” value [1] of the same compound?
The value was 83.6%.

And the “number of Acarina, 1 day later” value [1]?
Its value is 7 Acarina.

What about the “number of Acarina, 2 days later” value [1] of the same compound?
The value was 12 Acarina.

And the “number of Acarina, 3 days later” value [1]?
Its value is 23 Acarina.

What does the source list for `CC(=O)CCC=C(C)CCC=C(C)CCC=C(C)C` [cis-cis rich farnesylacetone, farnesylacetone]?
repellence rate, 1 day later [1]: 92.3%; repellence rate, 2 days later [1]: 88.6%; repellence rate, 3 days later [1]: 79.3%; number of Acarina, 1 day later [1]: 5 Acarina; number of Acarina, 2 days later [1]: 15 Acarina; number of Acarina, 3 days later [1]: 29 Acarina
